Measured values reported in patent US11744898B2, “Multi-arm polymer conjugates of TLR agonist compounds and related immunotherapeutic treatment methods” (Nektar Therapeutics, priority 2017, dated 2023).
One block for each molecule: values may come before it.

Experiments:
[1] = tested on: subcutaneous B16F10 mouse melanoma tumors; test: Immune cells in tumor microenvironment by flow cytometry, B16F10 melanoma model; type: in vivo, mice; settings: day 7; single dose of RSLAIL-2 or 5 doses of aldesleukin
STAT5 phosphorylation = STAT5 phosphorylation in lymphocytes by flow cytometry after administration in mice; type: in vivo
Source text: Conventional approaches, such as those involving radiolabeling a compound, administering it in vivo, and determining its clearance, can be used to determine whether a compound proposed to be a long-acting IL-2Rβ biased agonist is “long-acting”. For the purposes herein, the long acting nature of an IL-2Rβ biased agonist is typically determined using flow cytometry to measure STAT5 phosphorylation in lymphocytes at various time points after administration of the agonist to be evaluated in mice. As a reference, the signal is lost by around 24 hours with IL-2, but is sustained for a period greater than that for a long-acting IL-2Rβ-biased agonist.

[2] = Plasma and tumor concentrations following single 10 μg (R848 equivalents) intratumoral administration to EMT6 tumor bearing mice; type: in vivo, Balb/c mice; design: unit not given here
Protocol: (§1) Studies were conducted to evaluate the single dose pharmacokinetics of R848 and Compound 6 in plasma and tumor tissue.
(§2) Plasma and tumor tissues were collected at pre-determined time points for analysis of R848 and Compound 6 using a qualified LC-MS/MS method.

[3] = Plasma and tumor concentrations following single 10 μg (R848 equivalents) intratumoral administration to CT26 tumor bearing mice; type: in vivo, Balb/c mice; design: unit not given here
Protocol: as §1, §2

[4] = tested on: proinflammatory cytokines IFNα, IFNγ, TNFα, IL-6 and IL-12; test: Plasma cytokine induction after Compound 6 or resiquimod with staggered RSLAIL-2 in CT26 model; type: in vivo, Balb/c mice
Protocol: The concentration of proinflammatory cytokines IFNα, IFNγ, TNFα, IL-6 and IL-12 was determined in plasma by multiplex protein measurement assay at indicated time points post dose.

[5] = Plasma and tumor concentrations following single 10 μg (R848 equivalents) intratumoral administration to EMT6 tumor bearing mice; type: in vivo, Balb/c mice; design: key: +<10; 10≤++<100; 100≤+++<1,000; 1,000≤++++; BLQ is Below the Limit of Quantitation
Protocol: as §1, §2

[6] = Plasma and tumor concentrations following single 10 μg (R848 equivalents) intratumoral administration to CT26 tumor bearing mice; type: in vivo, Balb/c mice; design: key: +<10; 10≤++<100; 100≤+++<1,000; 1,000≤++++; BLQ is Below the Limit of Quantitation
Protocol: as §1, §2

CT26 tumor cells = test: Effect of treatment in vivo on intratumoral immune cell types by flow cytometry, CT26 tumors; design: species or system Balb/c mice
Protocol: The other (contralateral) tumor was not dosed with R848.
Immune cell subtypes were measured by flow cytometry.

[7] = plasma, 10 μg intra/peritumoral

Molecule: aldesleukin: clinically available IL-2; recombinant IL-2 referred to as aldesleukin
- ratio of CD8/Treg in the tumor [1]: 18
- time by which STAT5 phosphorylation signal is lost (STAT5 phosphorylation): around 24 hours

- R848 plasma concentration ([2]; 0.25 hr post-dose): +++ (100≤+++<1,000)
- R848 tumor concentration ([2]; 0.25 hr post-dose): ++ (1,000≤++<10,000)
- R848 plasma concentration ([2]; 2.00 hr post-dose): + (+<10)
- R848 tumor concentration ([2]; 2.00 hr post-dose): + (+<1,000)
- R848 plasma concentration ([2]; 6.00 hr post-dose): + (+<10)
- R848 tumor concentration ([2]; 6.00 hr post-dose): + (+<1,000)
- R848 tumor concentration ([2]; 24.00 hr post-dose): + (+<1,000)
- R848 tumor concentration ([2]; 72.00 hr post-dose): + (+<1,000)
- R848 tumor concentration ([2]; 96.00 hr post-dose): + (+<1,000)
- R848 tumor concentration ([2]; 120.00 hr post-dose): + (+<1,000)
- R848 tumor concentration ([2]; 144.00 hr post-dose): + (+<1,000)
- R848 plasma concentration ([3]; 0.25 hr post-dose): ++ (10≤++<100)
- R848 tumor concentration ([3]; 0.25 hr post-dose): ++ (1,000≤++<10,000)
- R848 plasma concentration ([3]; 2.00 hr post-dose): + (+<10)
- R848 tumor concentration ([3]; 2.00 hr post-dose): + (+<1,000)
- R848 plasma concentration ([3]; 6.00 hr post-dose): + (+<10)
- R848 tumor concentration ([3]; 6.00 hr post-dose): + (+<1,000)
- R848 plasma concentration ([3]; 24.00 hr post-dose): + (+<10)
- R848 tumor concentration ([3]; 24.00 hr post-dose): + (+<1,000)
- R848 tumor concentration ([3]; 72.00 hr post-dose): + (+<1,000)
- R848 tumor concentration ([3]; 96.00 hr post-dose): + (+<1,000)
- R848 tumor concentration ([3]; 120.00 hr post-dose): + (+<1,000)
- R848 tumor concentration ([3]; 144.00 hr post-dose): + (+<1,000)
- R848 plasma concentration ([5]; 24.00 hr post-dose): BLQ
- R848 plasma concentration ([5]; 72.00 hr post-dose): BLQ
- R848 plasma concentration ([5]; 96.00 hr post-dose): BLQ
- R848 plasma concentration ([5]; 120.00 hr post-dose): BLQ
- R848 plasma concentration ([5]; 144.00 hr post-dose): BLQ
- R848 plasma concentration ([6]; 72.00 hr post-dose): BLQ
- R848 plasma concentration ([6]; 96.00 hr post-dose): BLQ
- R848 plasma concentration ([6]; 120.00 hr post-dose): BLQ
- R848 plasma concentration ([6]; 144.00 hr post-dose): BLQ
Molecule: CCOCc1nc2c(N)nc3ccccc3c2n1CC(C)(C)O [Compound R848, 1-(4-Amino-2-(ethoxymethyl)-1H-imidazo[4,5-c]quinolin-1-yl)-2-methylpropan-2-ol]
- pro-inflammatory cytokine induction in blood, in words ([4]; 10 μg single intra/peritumoral dose): robust pro-inflammatory cytokine induction in blood
- time of peak level of IFN-γ [4, 7]: 6 h
- time of peak levels of IFNα, TNFα, IL-6 and IL-12 [4, 7]: 2 h
- CD8 T Cells (Percent of Vehicle) (CT26 tumor cells): 95%
- CD11c+ CD8+ Dendritic Cells (Percent of Vehicle) (CT26 tumor cells): 135%
- Macrophages (Percent of Vehicle) (CT26 tumor cells): 80%
- Monocytes (Percent of Vehicle) (CT26 tumor cells): 160%
- Neutrophils (Percent of Vehicle) (CT26 tumor cells): 500%
- T Regulatory Cells (Percent of Vehicle) (CT26 tumor cells): 20%
